{"source": "patent US8435790B2", "about": "“Methods of modulating lipid concentrations in eukaryotic cells” (The Regents of the University of California, priority 2008, dated 2013)", "key": {"[1]": {"test_system": "Drosophila S2 cells", "experiment": "Cellular triacylglycerol (TG) content of S2 cells", "assay_type": "cell-based", "conditions": "S2 cells incubated with 1 mM oleate for 24 hours; means of three experiments, P<0.05", "protocol": "FIG. 1A is series of micrographs of S2 cells incubated for 24 hours without (upper) or with (lower) 1 mM oleate. Staining with BODIPY, phase-contrast image, and overlay are shown. FIG. 1B is a graph showing that oleate-loaded cells have an increased triacylglycerol (TG) content. Cells were incubated as in FIG. 1a and their TG (triglyceride) contents were measured. Results are means and s.d. for three experiments; P<0.05. FIG. 1C is a series of micrographs showing that lipid droplet formation occurs in steps. Single cells were followed by four-dimensional confocal time-lapse photography. Representative maximum projections of three-dimensional stacks at the indicated times are shown. Scale bar is 3 μm.\nLipid measurements. Cells were cultured in 6-well plates (16 μg dsRNAs each well) for 3 days, and then 1 mM oleate was added for 24 hours. Cells were lysed in 50 mM Tris-HCl (pH 7.4), 0.25 M sucrose, and samples (250 μg protein) were assayed for lipids. PC was quantified with a colorimetric method^29. TG content was measured from extracted lipids by TLC^30."}, "[2]": {"test_system": "Drosophila S2 cells", "experiment": "Lipid-droplet formation in S2 cells, BODIPY staining and microscopy", "assay_type": "cell-based", "conditions": "S2 cells incubated with 1 mM oleate for 24 hours", "protocol": "Lipid-droplet formation in Drosophila Schneider 2 (S2) cells is an excellent system for functional genomic studies with efficient gene inactivation by RNAi^6. In the exemplified methods below, lipid-droplet formation was induced by incubation with 1 mM oleate for 24 hours. […] BODIPY-stained fluorescent signals corresponded to lipid droplets with a red fluorescent protein mCherry^7 fused with LSD1, which localizes exclusively to the surface of lipid droplets^3 (not shown).\nCell culture. Drosophila S2 cells were cultured in Schneider's Drosophila medium (Invitrogen) supplemented with 10% fetal bovine serum and antibiotics (100 unit/ml penicillin and 100 μg/ml streptomycin) at 25° C. as described^32. RNAi treatment of S2 cells were performed as previously described^10. A segment of pBluescript backbone was used as the template for control RNAi (referred as control RNAi thereafter). Transfection of S2 cells was performed using Cellfectin reagent (Invitrogen). Images of live cells were taken using LSM 510 confocal microscope (Carl Zeiss MicroImaging) with a 63× oil immersion lens.\nImage analyses. S2 cells (2.7×10^6 cells/ml) were treated with 1 μg dsRNA in 96-well plates for 3 days, and 1 mM oleic acid was added for 24 h. Cells were fixed in 4% paraformaldehyde/PBS (1 h) and stained with DAPI and BODIPY493/503 in PBS (1 h). […]"}}, "data": [{"smiles": "CCCCCCCC/C=C\\CCCCCCCC(=O)O", "note": "[oleate, Oleic acid]", "values": [{"measurement": "cellular triacylglycerol (TG) content", "setting": "[1]", "result": "increased sevenfold"}, {"measurement": "lipid droplet size, number, and overall volume (BODIPY staining)", "setting": "[2]", "result": "increased"}]}]}
